Source: the supplement of paper PMC13380429

What was measured:
[1] = system: A549-ACE2 infected with SARS-CoV-2; experiment: cell count relative to DMSO; higher = less toxic; conditions: 24 h
Caco-2 [2] = experiment: cell viability relative to DMSO; higher = less toxic; conditions: 72 h
Calu-3 [3] = experiment: as above; conditions: 72 h
HepG2 [4] = experiment: as above; conditions: 72 h
U2OS [5] = experiment: as above; conditions: 72 h
Vero E6 [6] = experiment: as above; conditions: 72 h
[7] = system: A549-ACE2 infected with SARS-CoV-2; experiment: SARS-CoV-2 infection rate relative to DMSO; higher = more infection; conditions: 24 h
A549-ACE2 [8] = experiment: phospholipidosis EC50; higher = less potent phospholipidosis inducer
A549-ACE2 [9] = experiment: drug-induced phospholipidosis relative to tamoxifen; higher = more phospholipidosis
[10] = system: A549-ACE2 infected with SARS-CoV-2; experiment: morphology score (similarity to uninfected cells); higher = more like uninfected cells; conditions: 24 h
Caco-2 [11] = experiment: relative viability EC50 (midpoint between 100% and the lowest measured viability); higher = less toxic; conditions: 72 h
Calu-3 [12] = experiment: as above; conditions: 72 h
U2OS [13] = experiment: as above; conditions: 72 h
Vero E6 [14] = experiment: as above; conditions: 72 h
Caco-2 [15] = experiment: drug sensitivity score (DSS) for viability; higher = more toxic; extreme values may be limits of the assay; conditions: 72 h
Calu-3 [16] = experiment: as above; conditions: 72 h
HepG2 [17] = experiment: as above; conditions: 72 h
U2OS [18] = experiment: as above; conditions: 72 h
Vero E6 [19] = experiment: as above; conditions: 72 h
HepG2 [20] = experiment: relative viability EC50 (midpoint between 100% and the lowest measured viability); higher = less toxic; conditions: 72 h

CN(C)c1ccccc1CN1CCCN(Cc2ccccc2N(C)C)C1c1ccncc1 [GANT-61]
Conditions | SARS-CoV-2 infection rate [%] | cell count [%] | cell viability [%] | morphology score | phospholipidosis EC50 [µM]
A549-ACE2 [8], 24 h | – | – | – | – | 3.39
A549-ACE2 [8], 48 h | – | – | – | – | 4.52
A549-ACE2 [8], 72 h | – | – | – | – | 6.2
Caco-2 [2], 1 nM | – | – | 94.5 | – | –
Caco-2 [2], 10 nM | – | – | 99.9 | – | –
Caco-2 [2], 100 nM | – | – | 92.7 | – | –
Caco-2 [2], 1000 nM | – | – | 99 | – | –
Caco-2 [2], 10000 nM | – | – | 95.9 | – | –
Calu-3 [3], 1 nM | – | – | 111 | – | –
Calu-3 [3], 10 nM | – | – | 109 | – | –
Calu-3 [3], 100 nM | – | – | 110 | – | –
Calu-3 [3], 1000 nM | – | – | 88.2 | – | –
Calu-3 [3], 10000 nM | – | – | 47.1 | – | –
HepG2 [4], 1 nM | – | – | 100 | – | –
HepG2 [4], 10 nM | – | – | 105 | – | –
HepG2 [4], 100 nM | – | – | 97.5 | – | –
HepG2 [4], 1000 nM | – | – | 95.3 | – | –
HepG2 [4], 10000 nM | – | – | 71.1 | – | –
U2OS [5], 1 nM | – | – | 97.5 | – | –
U2OS [5], 10 nM | – | – | 94 | – | –
U2OS [5], 100 nM | – | – | 95.8 | – | –
U2OS [5], 1000 nM | – | – | 100 | – | –
U2OS [5], 10000 nM | – | – | 93.5 | – | –
Vero E6 [6], 1 nM | – | – | 97.7 | – | –
Vero E6 [6], 10 nM | – | – | 101 | – | –
Vero E6 [6], 100 nM | – | – | 96 | – | –
Vero E6 [6], 1000 nM | – | – | 95.6 | – | –
Vero E6 [6], 10000 nM | – | – | 95 | – | –
[1], 0.3 µM | – | 95 | – | – | –
[1], 3 µM | – | 110 | – | – | –
[1], 10 µM | – | 117 | – | – | –
[1], 30 µM | – | 109 | – | – | –
[7], 0.3 µM | 99 | – | – | – | –
[7], 3 µM | 64 | – | – | – | –
[7], 10 µM | 33 | – | – | – | –
[7], 30 µM | 41 | – | – | – | –
[10], 0.3 µM | – | – | – | -0.11 | –
[10], 3 µM | – | – | – | 0.59 | –
[10], 10 µM | – | – | – | 0.68 | –
[10], 30 µM | – | – | – | 0.26 | –

drug-induced phospholipidosis [%], A549-ACE2 [9]
Conditions | 0.3 µM | 0.833333 µM | 3.33333 µM | 6.66667 µM | 10 µM | 30 µM
24 h | 3.13 | 5.25 | 60.1 | 90.1 | 94.9 | 116
48 h | 6.4 | 5.75 | 51.9 | 94.9 | 118 | 135
72 h | 6.86 | 6.64 | 47 | 96.1 | 125 | –

Conditions | drug sensitivity score | relative viability EC50
Caco-2 [11] | – | > 10 µM
Caco-2 [15] | 0 | –
Calu-3 [12] | – | 1650 nM
Calu-3 [16] | 4.7 | –
HepG2 [17] | 2 | –
U2OS [13] | – | > 10 µM
U2OS [18] | 0 | –
Vero E6 [14] | – | > 10 µM
Vero E6 [19] | 0 | –

CC[C@@H](C)CNCC(=O)N1CCc2sccc2[C@@H]1COc1cccc(C)c1 [RU-SKI-43]
Conditions | SARS-CoV-2 infection rate [%] | cell count [%] | cell viability [%] | morphology score | phospholipidosis EC50 [µM]
A549-ACE2 [8], 24 h | – | – | – | – | 3.7
A549-ACE2 [8], 48 h | – | – | – | – | 4.58
A549-ACE2 [8], 72 h | – | – | – | – | 6.66
Caco-2 [2], 1 nM | – | – | 98.8 | – | –
Caco-2 [2], 10 nM | – | – | 103 | – | –
Caco-2 [2], 100 nM | – | – | 90.4 | – | –
Caco-2 [2], 1000 nM | – | – | 107 | – | –
Caco-2 [2], 10000 nM | – | – | 83.2 | – | –
Calu-3 [3], 1 nM | – | – | 94.9 | – | –
Calu-3 [3], 10 nM | – | – | 103 | – | –
Calu-3 [3], 100 nM | – | – | 102 | – | –
Calu-3 [3], 1000 nM | – | – | 109 | – | –
Calu-3 [3], 10000 nM | – | – | 80.8 | – | –
HepG2 [4], 1 nM | – | – | 104 | – | –
HepG2 [4], 10 nM | – | – | 94.5 | – | –
HepG2 [4], 100 nM | – | – | 99.6 | – | –
HepG2 [4], 1000 nM | – | – | 108 | – | –
HepG2 [4], 10000 nM | – | – | 86.8 | – | –
U2OS [5], 1 nM | – | – | 95.5 | – | –
U2OS [5], 10 nM | – | – | 98.1 | – | –
U2OS [5], 100 nM | – | – | 94.4 | – | –
U2OS [5], 1000 nM | – | – | 99.5 | – | –
U2OS [5], 10000 nM | – | – | 93 | – | –
Vero E6 [6], 1 nM | – | – | 93.7 | – | –
Vero E6 [6], 10 nM | – | – | 92.9 | – | –
Vero E6 [6], 100 nM | – | – | 90.4 | – | –
Vero E6 [6], 1000 nM | – | – | 98.3 | – | –
Vero E6 [6], 10000 nM | – | – | 92.8 | – | –
[1], 0.3 µM | – | 98 | – | – | –
[1], 3 µM | – | 116 | – | – | –
[1], 10 µM | – | 119 | – | – | –
[1], 30 µM | – | 100 | – | – | –
[7], 0.3 µM | 102 | – | – | – | –
[7], 3 µM | 60 | – | – | – | –
[7], 10 µM | 24 | – | – | – | –
[7], 30 µM | 24 | – | – | – | –
[10], 0.3 µM | – | – | – | -0.05 | –
[10], 3 µM | – | – | – | 0.65 | –
[10], 10 µM | – | – | – | 0.83 | –
[10], 30 µM | – | – | – | 0.3 | –

drug-induced phospholipidosis [%], A549-ACE2 [9]
Conditions | 0.3 µM | 0.833333 µM | 3.33333 µM | 6.66667 µM | 10 µM | 30 µM
24 h | 2.31 | 9.84 | 41 | 92 | 102 | 95.8
48 h | 1.76 | 10.7 | 27.3 | 78.5 | 100 | 95
72 h | 3.03 | 9.34 | 27.4 | 73.8 | 102 | –

Conditions | drug sensitivity score | relative viability EC50
Caco-2 [11] | – | > 10 µM
Caco-2 [15] | 0.2 | –
Calu-3 [12] | – | > 10000 nM
Calu-3 [16] | 0.3 | –
HepG2 [17] | 0 | –
HepG2 [20] | – | > 10 µM
U2OS [13] | – | > 10 µM
U2OS [18] | 0 | –
Vero E6 [14] | – | > 10 µM
Vero E6 [19] | 0 | –
